Residues, ends and D or L forms follow the SMILES beside them.
What was measured:
[1] = tested on: S. typhimurium 8009; experiment: MIC at salt concentration (Example 3); format: cell-based, Salmonella typhimurium
Experimental: (§1) To compare the antimicrobial activity of the peptide produced by the method of Example 1, the inventors of the present invention measured the minimum growth inhibitory concentration (MIC), which is minimum concentration of the peptide showing no dissociation of bacterial cells, at salt concentration.
(§2) Specifically, the bacterial strain described in the above Table 2 was cultured in each medium to a mid-log phase. Then, after dilution to bacterial cell concentration of 2×10^5 cells/100 μl, the cells were inoculated to a microtiter plate (NUNC, USA). Thereafter, myxinidin 1, myxinidin 2, or myxinidin 3 peptides which have been synthesized in Example 1 above was diluted, 1/2 times for each, with BSA+150 mM sodium chloride (NaCl) solution, physiological saline (PBS) solution, or 10 mM sodium phosphate (SP) solution in a 96-well plate. After adding the cells to a plate, the cells were cultured for 12 hours at 37° C. By using a microtiter plate reader (Merck Elisa reader, Germany), the absorbance was measured at a wavelength of 600 nm to determine the MIC value of each bacterial strain. As a control group, myxinidin as a mother peptide was subjected to the same processes as above and the MIC value of each bacterial strain was obtained.

[2] = tested on: S. typhimurium 8013; experiment: MIC at salt concentration (Example 3); format: cell-based, Salmonella typhimurium
Experimental: as §1, §2

[3] = tested on: S. typhimurium; experiment: MIC at salt concentration (Example 3); format: cell-based, Salmonella typhimurium
Experimental: as §1, §2

[4] = tested on: S. aureus 3114; experiment: MIC at salt concentration (Example 3); format: cell-based, Staphylococcus aureus
Experimental: as §1, §2

[5] = tested on: S. aureus 3709; experiment: MIC at salt concentration (Example 3); format: cell-based, Staphylococcus aureus
Experimental: as §1, §2

[6] = tested on: S. aureus; experiment: MIC at salt concentration (Example 3); format: cell-based, Staphylococcus aureus
Experimental: as §1, §2

[7] = tested on: L. monocytogenes; experiment: MIC at salt concentration (Example 3); format: cell-based, Listeria monocytogenes
Experimental: as §1, §2

[8] = tested on: Escherichia coli 1229; experiment: MIC at salt concentration (Example 3); format: cell-based
Experimental: as §1, §2

[9] = tested on: P. aeruginosa 3592; experiment: MIC at salt concentration (Example 3); format: cell-based, Pseudomonas aeruginosa
Experimental: as §1, §2

[10] = tested on: P. aeruginosa 5018; experiment: MIC at salt concentration (Example 3); format: cell-based, Pseudomonas aeruginosa
Experimental: as §1, §2

[11] = tested on: P. aeruginosa; experiment: MIC at salt concentration (Example 3); format: cell-based, Pseudomonas aeruginosa
Experimental: as §1, §2

[12] = tested on: P. aeruginosa; experiment: Anti-biofilm activity (crystal violet); format: cell-based, Pseudomonas aeruginosa
Experimental: (§3) To compare the antimicrobial activity of the peptide produced by the method of Example 1, the inventors of the present invention measured the biofilm inhibitory concentration value of the peptide showing no dissociation of bacterial cells.
(§4) Specifically, the Gram-negative bacteria and Gram-positive bacteria among the bacterial strains described in the above Table 2 were cultured in each medium to a mid-log phase. Then, after dilution to bacterial cell concentration of 5×10^5 cells/100 μl, the cells were inoculated to a microtiter plate (NUNC, USA). Thereafter, myxinidin 1, myxinidin 2, or myxinidin 3 peptides which have been synthesized in Example 1 above was diluted, 1/10 times for each, with physiological saline (PBS) solution in a 96-well plate. After adding the cells to a plate, the cells were cultured for 12 hours at 37° C. After removing the supernatant, the cells were fixed with 100% methanol and reacted for 2 hours with Crystal violet staining solution followed by rinsing for 3 times. Then, after dissolving in 95% ethanol, the absorbance was measured at a wavelength of 595 nm by using a microtiter plate reader (Merck Elisa reader, Germany) to determine the biofilm inhibitory concentration value of each bacterial strain. As a control group, myxinidin as a mother peptide was subjected to the same processes as above and the biofilm inhibitory concentration value of each bacterial strain was obtained.

[13] = tested on: S. aureus; experiment: Anti-biofilm activity (crystal violet); format: cell-based, Staphylococcus aureus
Experimental: as §3, §4

[14] = tested on: L. monocytogenes; experiment: Anti-biofilm activity (crystal violet); format: cell-based, Listeria monocytogenes
Experimental: as §3, §4

[15] = in vitro; format: cell-based; conditions: human, NHK cells (normal human keratinocytes)
Experimental: To determine the cytotoxicity of the peptide produced by the method of Example 1 in normal cell line, toxicity was measured by using NHK cells (Normal Human Keratinocyte cells).
Specifically, NHK cells which have been cultured in Epilife medium with 60 μM calcium (Gibco, USA) containing 10% HKGS (Human Keratinocyte Growth Supplement) (Gibco, USA) were aliquoted in a 96-well plate to have 1×10^4 cells per well. After culturing them for 24 hours, the cells were subjected to a treatment with myxinidin, myxinidin 1, myxinidin 2, or myxinidin 3 peptide, each at concentration of 3.125, 6.25, 12.5, or 25.0 μM/well, followed by reaction for 24 hours in a 5% CO2 incubator. After the culture, a reaction solution containing 5 mg/ml MTT (Thiazolyl Blue Tetrazolium Bromide) dissolved in physiological saline (PBS) was added in an amount of 20 μl to each well and allowed to react for 4 hours. After that, the supernatant was removed, and, by dissolving MTT crystals that are formed by adding 200 μl of DMSO, the absorbance at 560 nm was measured to determine the cell survival ability.

[16] = NaCl (BSA+150 mM sodium chloride)

## CC[C@H](C)[C@H](NC(=O)[C@H](Cc1c[nH]c2ccccc12)NC(=O)[C@H](CCCNC(=N)N)NC(=O)[C@@H](NC(=O)[C@@H](N)CCCNC(=N)N)[C@@H](C)CC)C(=O)N[C@@H](CC(C)C)C(=O)N[C@@H](CCCNC(=N)N)C(=O)N[C@@H](Cc1ccc(O)cc1)C(=O)N[C@@H](Cc1c[nH]c2ccccc12)C(=O)N[C@@H](CCCNC(=N)N)C(=O)N[C@@H](Cc1c[nH]c2ccccc12)C(=O)N[C@@H](CO)C(N)=O [Myxinidin 3, RIRWILRYWRWS-NH2] (H-RIRWILRYWRWS-NH2; N-terminus assumed)
[1]; [16]
  Antimicrobial activity (MIC) according to salt concentration: 4
[1]; PBS
  Antimicrobial activity (MIC) according to salt concentration: 4
[1]; SP (10 mM sodium phosphate)
  Antimicrobial activity (MIC) according to salt concentration: 2
[2]; [16]
  Antimicrobial activity (MIC) according to salt concentration: 8
[2]; PBS
  Antimicrobial activity (MIC) according to salt concentration: 4
[2]; SP (10 mM sodium phosphate)
  Antimicrobial activity (MIC) according to salt concentration: 2
[3]; [16]
  Antimicrobial activity (MIC) according to salt concentration: 2
[3]; PBS
  Antimicrobial activity (MIC) according to salt concentration: 2
[3]; SP (10 mM sodium phosphate)
  Antimicrobial activity (MIC) according to salt concentration: 2
[4]; [16]
  Antimicrobial activity (MIC) according to salt concentration: 16
[4]; PBS
  Antimicrobial activity (MIC) according to salt concentration: 4
[4]; SP (10 mM sodium phosphate)
  Antimicrobial activity (MIC) according to salt concentration: 4
[5]; [16]
  Antimicrobial activity (MIC) according to salt concentration: 4
[5]; PBS
  Antimicrobial activity (MIC) according to salt concentration: 4
[5]; SP (10 mM sodium phosphate)
  Antimicrobial activity (MIC) according to salt concentration: 4
[6]; [16]
  Antimicrobial activity (MIC) according to salt concentration: 0.25
[6]; PBS
  Antimicrobial activity (MIC) according to salt concentration: 1
[6]; SP (10 mM sodium phosphate)
  Antimicrobial activity (MIC) according to salt concentration: 1
[7]; [16]
  Antimicrobial activity (MIC) according to salt concentration: 2
[7]; PBS
  Antimicrobial activity (MIC) according to salt concentration: 4
[7]; SP (10 mM sodium phosphate)
  Antimicrobial activity (MIC) according to salt concentration: 4
[8]; [16]
  Antimicrobial activity (MIC) according to salt concentration: 2
[8]; PBS
  Antimicrobial activity (MIC) according to salt concentration: 2
[8]; SP (10 mM sodium phosphate)
  Antimicrobial activity (MIC) according to salt concentration: 2
[9]; [16]
  Antimicrobial activity (MIC) according to salt concentration: 8
[9]; PBS
  Antimicrobial activity (MIC) according to salt concentration: 4
[9]; SP (10 mM sodium phosphate)
  Antimicrobial activity (MIC) according to salt concentration: 4
[10]; [16]
  Antimicrobial activity (MIC) according to salt concentration: 8
[10]; PBS
  Antimicrobial activity (MIC) according to salt concentration: 4
[10]; SP (10 mM sodium phosphate)
  Antimicrobial activity (MIC) according to salt concentration: 2
[11]; [16]
  Antimicrobial activity (MIC) according to salt concentration: 4
[11]; PBS
  Antimicrobial activity (MIC) according to salt concentration: 4
[11]; SP (10 mM sodium phosphate)
  Antimicrobial activity (MIC) according to salt concentration: 4
[12]; peptide 0.25 μM
  Biofilm forming ability: 100%
[12]; peptide 0.5 μM
  Biofilm forming ability: 97%
[12]; peptide 1 μM
  Biofilm forming ability: 97%
[12]; peptide 2 μM
  Biofilm forming ability: 64%
[12]; peptide 4 μM
  Biofilm forming ability: 8%
[12]; peptide 8 μM
  Biofilm forming ability: 7%
[12]; peptide 16 μM
  Biofilm forming ability: 7%
[12]; peptide 32 μM
  Biofilm forming ability: 7%
[13]; peptide 0.25 μM
  Biofilm forming ability: 85%
[13]; peptide 0.5 μM
  Biofilm forming ability: 84%
[13]; peptide 1 μM
  Biofilm forming ability: 84%
[13]; peptide 2 μM
  Biofilm forming ability: 71%
[13]; peptide 4 μM
  Biofilm forming ability: 28%
[13]; peptide 8 μM
  Biofilm forming ability: 17%
[13]; peptide 16 μM
  Biofilm forming ability: 16%
[13]; peptide 32 μM
  Biofilm forming ability: 14%
[14]; peptide 0.25 μM
  Biofilm forming ability: 94%
[14]; peptide 0.5 μM
  Biofilm forming ability: 87%
[14]; peptide 1 μM
  Biofilm forming ability: 87%
[14]; peptide 2 μM
  Biofilm forming ability: 83%
[14]; peptide 4 μM
  Biofilm forming ability: 22%
[14]; peptide 8 μM
  Biofilm forming ability: 21%
[14]; peptide 16 μM
  Biofilm forming ability: 18%
[14]; peptide 32 μM
  Biofilm forming ability: 16%
[15]
  viability at 24 h, 3.125 µM: 100%
  viability at 24 h, 6.25 µM: 100%
  viability at 24 h, 12.5 µM: 100%
  viability at 24 h, 25 µM: 100%

— patent publication US10919935B2, “Antimicrobial peptide derived from myxinidin peptide and uses thereof” (INDUSTRY-ACADEMIC COOPERATION FOUNDATION, CHOSUN UNIVERSITY, priority 2015, dated 2021)
